Earlier results, collected in patent US10912819B2, “Neuroprotective peptides derived from activity-dependent neuroprotective protein for treatment of neurological diseases” (priority 2016, dated 2021).
Where two headings read alike, the source gives them in different places.

Assays:
[1] = not told; cited from earlier work
[2] = ambient temperatures and atmospheric pressures, cited from earlier work
rabbits = conditions: cited from earlier work
cornea = conditions: Kusano et al. 2010; cited from earlier work

| Molecule | extent of permeation increase by preservative [1] | permeation in vitro in the presence of preservatives [1] | period of stability ([2]; Anhydrous) [years] | period of stability ([2]; Hemihydrate) [years] | skin irritation (rabbits; rabbit skin, 24 hour exposure) | signs of toxicity (rabbits; rabbit, in vivo, 2000 mg/kg) | acute dermal LD50 (rabbits; rabbits) | mortality (rabbits; single dermal application of 2000 mg/kg) [%] | effect on corneal permeability (cornea) | effect on cell survival (cornea) |
| --- | --- | --- | --- | --- | --- | --- | --- | --- | --- | --- |
| NC(=O)CC[C@@H]1NC(=O)[C@H](Cc2ccccc2)NC(=O)[C@H](Cc2ccc(O)cc2)NC(=O)CCSSC[C@@H](C(=O)N2CCC[C@H]2C(=O)N[C@H](CCCN=C(N)N)C(=O)NCC(N)=O)NC(=O)[C@H](CC(N)=O)NC1=O [DDAVP, desmopressin acetate] | chlorobutanol<benzalkonium<sorbate | always increased | – | – | – | – | – | – | – | – |
| CC(C)(O)C(Cl)(Cl)Cl [chlorobutanol, trichloro-2-methyl-2-propanol] | – | – | 3 | 5 | Non-irritant | no signs of toxicity | greater than 2000 mg/kg | 10 | not chlorobutanol affect corneal permeability | – |
| benzalkonium chloride | – | – | – | – | – | – | – | – | affect corneal permeability | adversely affected cell survival |
